{"source": "paper PMC4148704", "about": "“Agaricus meleagris pyranose dehydrogenase: Influence of covalent FAD linkage on catalysis and stability” (Archives of Biochemistry and Biophysics, 2014)", "target": "T1, AmPDH (Agaricus meleagris pyranose dehydrogenase) (Macropsalliota meleagris, UniProt Q3L245)", "T1 construct": "gene pdh1; recombinant from Pichia pastoris X-33, secreted glycoprotein, about 75 kDa, monomer, 577 amino acids, covalent 8alpha-N(3)-histidyl FAD at H103", "T1 sequence (Q3L245 26-602)": "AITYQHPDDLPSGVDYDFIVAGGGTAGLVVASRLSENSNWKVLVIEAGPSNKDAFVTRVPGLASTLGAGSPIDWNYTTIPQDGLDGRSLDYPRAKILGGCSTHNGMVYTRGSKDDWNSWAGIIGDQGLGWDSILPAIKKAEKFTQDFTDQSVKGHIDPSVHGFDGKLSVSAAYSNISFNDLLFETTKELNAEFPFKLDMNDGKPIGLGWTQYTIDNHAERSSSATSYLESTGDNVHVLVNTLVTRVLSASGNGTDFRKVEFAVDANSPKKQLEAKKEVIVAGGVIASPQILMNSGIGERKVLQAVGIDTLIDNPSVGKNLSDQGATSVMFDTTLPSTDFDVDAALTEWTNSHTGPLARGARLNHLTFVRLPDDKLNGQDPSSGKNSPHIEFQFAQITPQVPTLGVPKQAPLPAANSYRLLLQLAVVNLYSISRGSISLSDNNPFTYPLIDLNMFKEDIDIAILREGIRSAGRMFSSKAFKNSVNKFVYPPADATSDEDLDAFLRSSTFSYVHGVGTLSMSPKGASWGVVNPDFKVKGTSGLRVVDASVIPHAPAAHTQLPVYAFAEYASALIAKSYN", "assay": "stopped-flow reductive half-reaction, […] nm", "assay_type": "biochemical", "conditions": "pH 7.5, 65 mM sodium phosphate, 30 °C; 0.1-5 mM D-glucose; only a bimolecular rate constant", "data": [{"compound": "OC[C@H]1OC(O)[C@H](O)[C@@H](O)[C@@H]1O", "note": "(stereo partly drawn) [D-glucose]", "values": [{"measurement": "kapp", "result": "spectral changes of wild-type AmPDH upon addition of D-glucose"}]}]}
